Measured values published in patent US8829034B2, “Compounds which modulate the CB2 receptor” (Boehringer Ingerlheim International GmbH, priority 2006, dated 2014).
Like-named read-outs stand apart in the source and are kept apart here.

Biological target: T1, human CB2R (Homo sapiens, UniProt P34972)
T1 construct: host or cells: CHO cells
Assay: CB2R mediated modulation of cAMP synthesis
Assay type: cell-based
Settings: for agonistic activity: found through the use of the above described assays
Procedure: B. CB2R Mediated Modulation of cAMP Synthesis:
CHO cells expressing human CB2R (Euroscreen) were plated at a density of 5000 cells per well in 384 well plates and incubated overnight at 37° C. After removing the media, the cells were treated with test compounds diluted in stimulation buffer containing 1 mM IBMX, 0.25% BSA and 10 uM Forskolin. The assay was incubated for 30 minutes at 37° C. Cells were lysed and the cAMP concentration was measured using DiscoverX-XS cAMP kit, following the manufacturer's protocol. In this setting, agonists will decrease forskolin induced production of cAMP while inverse agonists will further increase forskolin induced production of cAMP. EC50 of agonists were calculated as follows. The maximal amount of cAMP produced by forskolin compared to the level of cAMP inhibited by 1 uM CP55940 is defined as 100%. The EC50 value of each test compound was determined as the concentration at which 50% of the forskolin-stimulated cAMP synthesis was inhibited. Data was analyzed using a four-parameter logistic model. (Model 205 of XLfit 4.0).

[1] = CHO cells expressing human CB2R, inhibition of forskolin-stimulated cAMP synthesis, compounds having agonist activity, read-out: CB2 EC50

T1 sequence (P34972 whole entry): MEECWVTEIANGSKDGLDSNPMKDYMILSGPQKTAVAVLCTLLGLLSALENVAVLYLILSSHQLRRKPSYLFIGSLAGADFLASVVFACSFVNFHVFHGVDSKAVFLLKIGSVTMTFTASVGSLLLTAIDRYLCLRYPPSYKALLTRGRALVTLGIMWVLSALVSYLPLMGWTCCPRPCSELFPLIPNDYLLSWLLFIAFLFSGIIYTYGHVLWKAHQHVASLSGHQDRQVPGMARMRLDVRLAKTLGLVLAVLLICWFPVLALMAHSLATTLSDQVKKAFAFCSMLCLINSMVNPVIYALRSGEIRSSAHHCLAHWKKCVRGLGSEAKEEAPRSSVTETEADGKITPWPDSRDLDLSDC

Row | Structure (SMILES) | EC50 [nM] | agonistic activity | EC50 [1] [nM]
1 | CC(C)(C)c1cc(NC(=O)C2(S(=O)(=O)CC3CCOCC3)CCC2)on1 [1-(Tetrahydro-pyran-4-ylmethanesulfonyl)-cyclobutanecarboxylic acid (3-tert-butyl-isoxazol-5-yl)-amide] | 6.2 | agonistic activity | –
2 | CC(C)(C)c1csc(NC(=O)C2(S(=O)(=O)C3CCCCC3)CCC2)n1 [1-Cyclohexanesulfonyl-cyclobutanecarboxylic acid (4-tert-butyl-thiazol-2-yl)-amide] | 11.7 | agonistic activity | –
3 | CC(C)(C)c1cc(NC(=O)C2(S(=O)(=O)C3CCCCC3)CCC2)no1 [1-Cyclohexanesulfonyl-cyclobutanecarboxylic acid (5-tert-butyl-isoxazol-3-yl)-amide] | 0.5 | agonistic activity | –
4 | CC(=O)N1CCCC(CS(=O)(=O)C(C)(C)C(=O)Nc2cc(C(C)(C)C)on2)C1 (centres unmarked) [2-(1-Acetyl-piperidin-3-ylmethanesulfonyl)-N-(5-tert-butyl-isoxazol-3-yl)-2-methyl-propionamide] | – | agonistic activity | –
5 | CC(C)(C)C(=O)CS(=O)(=O)C(C)(C)C(=O)Nc1ccc(C(F)(F)F)cn1 [2-(3,3-Dimethyl-2-oxo-butane-1-sulfonyl)-2-methyl-N-(5-trifluoromethyl-pyridin-2-yl)-propionamide] | 41.5 | agonistic activity | –
6 | CCC(C)S(=O)(=O)C(C)(C)C(=O)Nc1ccc(C(F)(F)F)cn1 (centres unmarked) [2-(Butane-2-sulfonyl)-2-methyl-N-(5-trifluoromethyl-pyridin-2-yl)-propionamide] | – | agonistic activity | –
7 | CCC(C)S(=O)(=O)C(C)(C)C(=O)Nc1cc(C(C)(C)C)no1 (centres unmarked) [2-(Butane-2-sulfonyl)-N-(3-tert-butyl-isoxazol-5-yl)-2-methyl-propionamide] | 3.3 | agonistic activity | –
8 | CCC(C)S(=O)(=O)C(C)(C)C(=O)Nc1nc(C(C)(C)C)cs1 (centres unmarked) [2-(Butane-2-sulfonyl)-N-(4-tert-butyl-thiazol-2-yl)-2-methyl-propionamide] | – | agonistic activity | 14.4
9 | CCC(C)S(=O)(=O)C(C)(C)C(=O)Nc1cc(C(C)(C)C)nn1C (centres unmarked) [2-(Butane-2-sulfonyl)-N-(5-tert-butyl-2-methyl-2H-pyrazol-3-yl)-2-methyl-propionamide] | – | agonistic activity | –
10 | CCC(C)S(=O)(=O)C(C)(C)C(=O)Nc1cc(C(C)(C)C)on1 (centres unmarked) [2-(Butane-2-sulfonyl)-N-(5-tert-butyl-isoxazol-3-yl)-2-methyl-propionamide] | – | agonistic activity | 18.7
11 | CC(C)(C(=O)Nc1ccc(C(F)(F)F)cn1)S(=O)(=O)CC1CCC1 [2-Cyclobutylmethanesulfonyl-2-methyl-N-(5-trifluoromethyl-pyridin-2-yl)-propionamide] | – | agonistic activity | –
12 | CC(C)(C(=O)Nc1ccc(C(F)(F)F)cn1)S(=O)(=O)C1CCCCCC1 [2-Cycloheptanesulfonyl-2-methyl-N-(5-trifluoromethyl-pyridin-2-yl)-propionamide] | 7.1 | agonistic activity | –
13 | CC(C)(C(=O)Nc1ccc(C(F)(F)F)cn1)S(=O)(=O)C1CCCCC1 [2-Cyclohexanesulfonyl-2-methyl-N-(5-trifluoromethyl-pyridin-2-yl)-propionamide] | 11.8 | agonistic activity | –
14 | CC(C)(C(=O)Nc1ccc(C(F)(F)F)cn1)S(=O)(=O)CC1CCCCC1 [2-Cyclohexylmethanesulfonyl-2-methyl-N-(5-trifluoromethyl-pyridin-2-yl)-propionamide] | 15.4 | agonistic activity | –
15 | Cn1nc(-c2ccccc2)cc1NC(=O)C(C)(C)S(=O)(=O)C1CCCC1 [2-Cyclopentanesulfonyl-2-methyl-N-(2-methyl-5-phenyl-2H-pyrazol-3-yl)-propionamide] | – | agonistic activity | –
16 | CC(C)(C(=O)Nc1cc(C(F)(F)F)ccn1)S(=O)(=O)C1CCCC1 [2-Cyclopentanesulfonyl-2-methyl-N-(4-trifluoromethyl-pyridin-2-yl)-propionamide] | – | agonistic activity | –
17 | CC(C)(C(=O)Nc1nc(C(F)(F)F)cs1)S(=O)(=O)C1CCCC1 [2-Cyclopentanesulfonyl-2-methyl-N-(4-trifluoromethyl-thiazol-2-yl)-propionamide] | – | agonistic activity | –
18 | CC(C)(C(=O)Nc1nnc(-c2ccccc2)[nH]1)S(=O)(=O)C1CCCC1 [2-Cyclopentanesulfonyl-2-methyl-N-(5-phenyl-4H-1,2,4-triazol-3-yl)-propionamide] | 3.8 | agonistic activity | –
19 | CC(C)(C(=O)Nc1ccc(C(F)(F)F)cn1)S(=O)(=O)C1CCCC1 [2-Cyclopentanesulfonyl-2-methyl-N-(5-trifluoromethyl-pyridin-2-yl)-propionamide] | – | agonistic activity | –
20 | CC(C)(C(=O)Nc1ccc(C(F)(F)F)cn1)S(=O)(=O)CC1CC1 [2-Cyclopropylmethanesulfonyl-2-methyl-N-(5-trifluoromethyl-pyridin-2-yl)-propionamide] | – | agonistic activity | –
21 | CC(C)(C)S(=O)(=O)C(C)(C)C(=O)Nc1cc(C(F)(F)F)ccn1 [2-Methyl-2-(2-methyl-propane-2-sulfonyl)-N-(4-trifluoromethyl-pyridin-2-yl)-propionamide] | – | agonistic activity | –
22 | CC(C)(C)S(=O)(=O)C(C)(C)C(=O)Nc1cccc(C(F)(F)F)n1 [2-Methyl-2-(2-methyl-propane-2-sulfonyl)-N-(6-trifluoromethyl-pyridin-2-yl)-propionamide] | – | agonistic activity | –
23 | CC(C)CCS(=O)(=O)C(C)(C)C(=O)Nc1ccc(C(F)(F)F)cn1 [2-Methyl-2-(3-methyl-butane-1-sulfonyl)-N-(5-trifluoromethyl-pyridin-2-yl)-propionamide] | 19.9 | agonistic activity | –
24 | CC(C)(C(=O)Nc1ccc(C(F)(F)F)cn1)S(=O)(=O)CC1CCNCC1 [2-Methyl-2-(piperidin-4-ylmethanesulfonyl)-N-(5-trifluoromethyl-pyridin-2-yl)-propionamide] | – | agonistic activity | –
25 | CCCS(=O)(=O)C(C)(C)C(=O)Nc1nc2c(s1)CCCC2 [2-Methyl-2-(propane-1-sulfonyl)-N-(4,5,6,7-tetrahydro-benzothiazol-2-yl)-propionamide] | – | agonistic activity | –
26 | CCCS(=O)(=O)C(C)(C)C(=O)Nc1nc(-c2ccncc2)cs1 [2-Methyl-2-(propane-1-sulfonyl)-N-(4-pyridin-4-yl-thiazol-2-yl)-propionamide] | – | agonistic activity | –
27 | CCCS(=O)(=O)C(C)(C)C(=O)Nc1cc(C(F)(F)F)ccn1 [2-Methyl-2-(propane-1-sulfonyl)-N-(4-trifluoromethyl-pyridin-2-yl)-propionamide] | – | agonistic activity | –
28 | CCCS(=O)(=O)C(C)(C)C(=O)Nc1nc(C(F)(F)F)cs1 [2-Methyl-2-(propane-1-sulfonyl)-N-(4-trifluoromethyl-thiazol-2-yl)-propionamide] | – | agonistic activity | –
29 | CCCS(=O)(=O)C(C)(C)C(=O)Nc1ccc(C(F)(F)F)cn1 [2-Methyl-2-(propane-1-sulfonyl)-N-(5-trifluoromethyl-pyridin-2-yl)-propionamide] | – | agonistic activity | –
